The results in this text go back to US20070128217A1 (priority 2003, published 2007).

In experiment [1] the test system is control sera (pooled serum of ten healthy LUMC hospital workers; commercial negative donor pooled serum from the Dutch bloodbank). Type of experiment: binding, human. On the set-up: Binding of Control serum LUMC to linear peptides / Binding of Control serum Blood-bank to linear peptides / Binding of Control serum LUMC to looped peptides / Binding of Control Serum Blood-Bank to Looped peptides / Binding of Control serum LUMC to linear peptides of the protein M of SARS-CoV Urbani / Binding of Control serum Blood-bank to linear peptides of the protein M of SARS-CoV Urbani / Binding of Control serum LUMC to looped peptides of the protein M of SARS-CoV Urbani / Binding of Control Serum Blood-Bank to Looped peptides of the protein M of SARS-CoV Urbani: unit not given here.

The test system of experiment [2] is rabbit serum obtained by immunizing a rabbit with the SARS-CoV strain Frankfurt 1. Format: binding. On the set-up: Binding of a rabbit serum to linear peptides / Binding of a rabbit serum to looped peptides / Rabbit serum linear peptides / Rabbit serum looped peptides / Binding of a rabbit serum to linear peptides of protein N of SARS-CoV Urbani (Rabbit serum linear peptides) / Binding of a rabbit serum to looped/cyclic peptides of protein N of SARS-CoV Urbani (Rabbit serum looped peptides): unit not given here.

Experiment [3] relates to antibodies in sera from SARS patients (sera 1a, 1b, 2, 6, 37, 62, London, SARS-yellow, SARS-green). Format: binding, human. On the set-up: Binding of serum 6 to linear peptides of protein X1 of SARS-CoV Urbani / Binding of serum 37 to linear peptides of protein X1 of SARS-CoV Urbani / Binding of serum 6 to looped/cyclic peptide (PEPSCAN-ELISA) / Binding of serum 37 to looped/cyclic peptide (PEPSCAN-ELISA) / Binding of serum 37 to looped/cyclic peptides of protein X1 of SARS-CoV Urbani / Binding of serum 6 to linear peptides of protein X2 / Binding of serum 37 to linear peptides of protein X2 / Binding of serum 37 to looped/cyclic peptides of protein X2 of SARS-CoV Urbani / Binding of serum 6 to linear peptides of protein M of SARS-CoV Urbani / Binding of serum 37 to linear peptides of protein M of SARS-CoV Urbani / Binding of serum 6 to looped/cyclic peptides of protein M of SARS-CoV Urbani / Binding of serum 37 to looped/cyclic peptides of protein M of SARS-CoV Urbani / Binding of serum 6 to linear peptides of protein X3 of SARS-CoV Urbani / Binding of serum 37 to linear peptides of protein X3 of SARS-CoV Urbani / Binding of serum 37 to looped/cyclic peptides of protein X3 of SARS-CoV Urbani / Binding of serum 6 to linear peptides of protein X4 of SARS-CoV Urbani / Binding of serum 37 to linear peptides of protein X4 of SARS-CoV Urbani / Binding of serum 37 to looped/cyclic peptides of protein X4 of SARS-CoV Urbani / Binding of serum 6 to linear peptides of protein X5 of SARS-CoV Urbani / Binding of serum 37 to linear peptides of protein X5 of SARS-CoV Urbani / Binding of serum 37 to looped/cyclic peptides of protein X5 of SARS-CoV Urbani / Binding of serum 6 to linear peptides of protein N of SARS-CoV Urbani / Binding of serum 37 to linear peptides of protein N of SARS-CoV Urbani / Binding of serum 6 to linear peptide (PEPSCAN-ELISA) / Binding of serum 1a to looped/cyclic peptides of protein N of SARS-CoV Urbani / Binding of serum 1b to looped/cyclic peptides of protein N of SARS-CoV Urbani / Binding of serum 2 to looped/cyclic peptides of protein N of SARS-CoV Urbani / Binding of serum 6 to looped/cyclic peptides of protein N of SARS-CoV Urbani / Binding of serum 37 to looped/cyclic peptides of protein N of SARS-CoV Urbani / Binding of serum 62 to looped/cyclic peptides of protein N of SARS-CoV Urbani / Binding of serum London to looped/cyclic peptides of protein N of SARS-CoV Urbani / Binding of serum SARS-green to looped/cyclic peptides of protein N of SARS-CoV Urbani: unit not given here.

For LVLKMLHSSSLTSLL, in experiment [1], the “Binding of Control Serum Blood-Bank to Looped peptides” value amounted to 0.7, the “Binding of Control serum Blood-bank to linear peptides” value amounted to 0.5, the “Binding of Control serum LUMC to linear peptides” value amounted to 0.2 and the “Binding of Control serum LUMC to looped peptides” value is reported as 0.6. In experiment [2], the “Binding of a rabbit serum to linear peptides” value was determined as 0.3 and the “Binding of a rabbit serum to looped peptides” value was found to be 0.4. In experiment [3], the “Binding of serum 1a to linear peptides of protein X2” value is 0.6, the “Binding of serum 1a to looped/cyclic peptides of protein X2 of SARS-CoV Urbani” value turned out to be 0.6, the “Binding of serum 1b to linear peptides of protein X2” value is given as 0.4 and the “Binding of serum 1b to looped/cyclic peptides of protein X2 of SARS-CoV Urbani” value was 0.5. Besides, in experiment [3], the “Binding of serum 2 to linear peptides of protein X2” value came to 0.3, the “Binding of serum 2 to looped/cyclic peptides of protein X2 of SARS-CoV Urbani” value is given as 0.3, the “Binding of serum 6 to linear peptides of protein X2” value is given as 0.3 and the “Binding of serum 6 to looped/cyclic peptides of protein X2 of SARS-CoV Urbani” value is 0.4. In experiment [3], the “Binding of serum 37 to linear peptides of protein X2” value was determined as 0.4, the “Binding of serum 37 to looped/cyclic peptides of protein X2 of SARS-CoV Urbani” value is 0.4, the “Binding of serum 62 to linear peptides of protein X2” value was 0.5 and the “Binding of serum 62 to looped/cyclic peptides of protein X2 of SARS-CoV Urbani” value amounted to 0.6. Also, in experiment [3], the “Binding of serum London to linear peptides of protein X2” value is listed as 0.3, the “Binding of serum London to looped/cyclic peptides of protein X2 of SARS-CoV Urbani” value amounted to 0.2, the “Binding of serum SARS-green to linear peptides of protein X2” value was determined as 0.5 and the “Binding of serum SARS-green to looped/cyclic peptides of protein X2 of SARS-CoV Urbani” value amounted to 0.3. In addition, in experiment [3], the “Binding of serum SARS-yellow to linear peptides of protein X2” value came to 0.4 and the “Binding of serum SARS-yellow to looped/cyclic peptides of protein X2 of SARS-CoV Urbani” value is given as 0.4.

Take LVRYNTRGNTYSTAW: in experiment [1], the “Binding of Control Serum Blood-Bank to Looped peptides” value was determined as 0.3, the “Binding of Control serum Blood-bank to linear peptides” value worked out at 0.8, the “Binding of Control serum LUMC to linear peptides” value amounted to 0.5 and the “Binding of Control serum LUMC to looped peptides” value was 0.5. Further, in experiment [2], the “Rabbit serum linear peptides” value is 0.7 and the “Rabbit serum looped peptides” value is reported as 0.3. Moreover, in experiment [3], the “Binding of serum 1a to linear peptides of protein X5 of SARS-CoV Urbani” value is 0.7, the “Binding of serum 1a to looped/cyclic peptides of protein X5 of SARS-CoV Urbani” value is 0.4, the “Binding of serum 1b to linear peptides of protein X5 of SARS-CoV Urbani” value came to 0.4 and the “Binding of serum 1b to looped/cyclic peptides of protein X5 of SARS-CoV Urbani” value amounted to 0.2. In experiment [3], the “Binding of serum 2 to linear peptides of protein X5 of SARS-CoV Urbani” value is given as 0.5, the “Binding of serum 2 to looped/cyclic peptides of protein X5 of SARS-CoV Urbani” value stood at 0.4, the “Binding of serum 6 to linear peptides of protein X5 of SARS-CoV Urbani” value turned out to be 0.4 and the “Binding of serum 6 to looped/cyclic peptides of protein X5 of SARS-CoV Urbani” value was determined as 0.3. In addition, in experiment [3], the “Binding of serum 37 to linear peptides of protein X5 of SARS-CoV Urbani” value stood at 0.6, the “Binding of serum 37 to looped/cyclic peptides of protein X5 of SARS-CoV Urbani” value is recorded as 0.5, the “Binding of serum 62 to linear peptides of protein X5 of SARS-CoV Urbani” value was 0.7 and the “Binding of serum 62 to looped/cyclic peptides of protein X5 of SARS-CoV Urbani” value was determined as 0.6. In experiment [3], the “Binding of serum London to linear peptides of protein X5 of SARS-CoV Urbani” value was 0.6, the “Binding of serum London to looped/cyclic peptides of protein X5 of SARS-CoV Urbani” value was 0.2, the “Binding of serum SARS-green to linear peptides of protein X5 of SARS-CoV Urbani” value is given as 0.4 and the “Binding of serum SARS-green to looped/cyclic peptides of protein X5 of SARS-CoV Urbani” value came out at 0.3. Also, in experiment [3], the “Binding of serum SARS-yellow to linear peptides of protein X5 of SARS-CoV Urbani” value is recorded as 0.3 and the “Binding of serum SARS-yellow to looped/cyclic peptides of protein X5 of SARS-CoV Urbani” value was 0.5.
